Source: patent publication US12077503B2, “Substituted cyclic amides and their use as herbicides” (FMC CORPORATION, priority 2015, dated 2024)

Tests used:
Type in all cases: in vivo
[1] = system: velvetleaf (Abutilon theophrasti); assay: Test G Post-Emergence Protocol; conditions: Abutilon theophrasti, post-emergence, 312 h; for pest or weed control at 15.625 g/ha: 15.625 g ai/ha, evaluated after 13 days (100=total damage to plant; 0=no damage to plant), read-out: Velvetleaf damage rating; for pest or weed control at 62.5 g/ha: 62.5 g ai/ha, read-out: Velvetleaf damage rating (100=total damage to plant; 0=no damage to plant); for pest or weed control at 62.5 g/ha / pest or weed control at 250 g/ha: evaluated after 13 days; for pest or weed control at 250 g/ha: 250 g ai/ha, read-out: damage to plant, Velvetleaf (100=total damage to plant; 0=no damage to plant)
In short: (§1)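 Values are percent visual injury at 13 days after treatment (0 none, 100 total). Treatment was a post-emergence spray at 15.625, 62.5 or 250 g/ha on 8-day-old pot plants kept at 24/16 °C.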

[2] = system: ivy-leaved morning glory (Ipomoea hederacea); assay: Test G Post-Emergence Protocol; conditions: Ipomoea, post-emergence, 312 h; for pest or weed control at 15.625 g/ha: 15.625 g ai/ha, evaluated after 13 days (100=total damage to plant; 0=no damage to plant), read-out: Morningglory, Ivy-leaved damage rating; for pest or weed control at 62.5 g/ha: 62.5 g ai/ha, read-out: Morningglory, Ivy-leaved damage rating (100=total damage to plant; 0=no damage to plant); for pest or weed control at 62.5 g/ha / pest or weed control at 250 g/ha: evaluated after 13 days; for pest or weed control at 250 g/ha: 250 g ai/ha, read-out: damage to plant, Morningglory, Ivy-leaved (100=total damage to plant; 0=no damage to plant)
In short: as §1

[3] = system: redroot pigweed (Amaranthus retroflexus); assay: Test G Post-Emergence Protocol; conditions: Amaranthus retroflexus, post-emergence, 312 h; for pest or weed control at 15.625 g/ha: 15.625 g ai/ha, evaluated after 13 days (100=total damage to plant; 0=no damage to plant), read-out: Pigweed, Redroot damage rating; for pest or weed control at 62.5 g/ha: 62.5 g ai/ha, read-out: Pigweed, Redroot damage rating (100=total damage to plant; 0=no damage to plant); for pest or weed control at 62.5 g/ha / pest or weed control at 250 g/ha: evaluated after 13 days; for pest or weed control at 250 g/ha: 250 g ai/ha, read-out: damage to plant, Pigweed, Redroot (100=total damage to plant; 0=no damage to plant)
In short: as §1

[4] = system: giant foxtail (Setaria faberi); assay: Test G Post-Emergence Protocol; conditions: Setaria faberi, post-emergence, 312 h; for pest or weed control at 15.625 g/ha: 15.625 g ai/ha, evaluated after 13 days (100=total damage to plant; 0=no damage to plant), read-out: Foxtail, Giant damage rating; for pest or weed control at 62.5 g/ha: 62.5 g ai/ha, read-out: Foxtail, Giant damage rating (100=total damage to plant; 0=no damage to plant); for pest or weed control at 62.5 g/ha / pest or weed control at 250 g/ha: evaluated after 13 days; for pest or weed control at 250 g/ha: 250 g ai/ha, read-out: damage to plant, Foxtail, Giant (100=total damage to plant; 0=no damage to plant)
In short: as §1

corn (Zea mays) [5] = assay: Test G Post-Emergence Protocol; conditions: Zea mays, post-emergence, 312 h; for plant injury at 15.625 g/ha: 15.625 g ai/ha, evaluated after 13 days (100=total damage to plant; 0=no damage to plant), read-out: Corn damage rating; for plant injury at 62.5 g/ha: 62.5 g ai/ha, read-out: Corn damage rating (100=total damage to plant; 0=no damage to plant); for plant injury at 62.5 g/ha / plant injury at 250 g/ha: evaluated after 13 days; for plant injury at 250 g/ha: 250 g ai/ha, read-out: damage to plant, Corn (100=total damage to plant; 0=no damage to plant)
In short: as §1

[6] = system: barnyardgrass (Echinochloa crus-galli); assay: Test G Post-Emergence Protocol; conditions: Echinochloa crus-galli, post-emergence, 312 h; for pest or weed control at 15.625 g/ha: 15.625 g ai/ha, evaluated after 13 days (100=total damage to plant; 0=no damage to plant), read-out: Barnyardgrass damage rating; for pest or weed control at 62.5 g/ha: 62.5 g ai/ha, read-out: Barnyardgrass damage rating (100=total damage to plant; 0=no damage to plant); for pest or weed control at 62.5 g/ha / pest or weed control at 250 g/ha: evaluated after 13 days; for pest or weed control at 250 g/ha: 250 g ai/ha, read-out: damage to plant, Barnyardgrass (100=total damage to plant; 0=no damage to plant)
In short: as §1

[7] = system: velvetleaf (Abutilon theophrasti); assay: Test G Pre-Emergence Protocol; conditions: Abutilon theophrasti, pre-emergence, 312 h, evaluated after 13 days; for pest or weed control at 15.625 g/ha: 15.625 g ai/ha; for pest or weed control at 15.625 g/ha / pest or weed control at 250 g/ha: read-out: Velvetleaf damage rating (100=total damage to plant; 0=no damage to plant); for pest or weed control at 62.5 g/ha: 62.5 g ai/ha, 100=total damage to plant, 0=no damage to plant, read-out: plant damage rating, Velvetleaf; for pest or weed control at 250 g/ha: 250 g ai/ha
In short: (§2)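 One day after sowing, pots are treated with a spray of test compound formulated in acetone/water 50:50 plus 0.5% Tween 20, giving 15.625, 62.5 or 250 g/ha. Evaluation on a 0–100 damage scale follows 13 days of glasshouse growth.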

[8] = system: ivy-leaved morning glory (Ipomoea hederacea); assay: Test G Pre-Emergence Protocol; conditions: Ipomoea, pre-emergence, 312 h, evaluated after 13 days; for pest or weed control at 62.5 g/ha: 62.5 g ai/ha, 100=total damage to plant, 0=no damage to plant, read-out: plant damage rating, Morningglory, Ivy-leaved; for pest or weed control at 250 g/ha: 250 g ai/ha, read-out: Morningglory, Ivy-leaved damage rating (100=total damage to plant; 0=no damage to plant); for pest or weed control at 15.625 g/ha: 15.625 g ai/ha, read-out: Morning-glory, Ivy-leaved damage rating (100=total damage to plant; 0=no damage to plant)
In short: as §2

[9] = system: redroot pigweed (Amaranthus retroflexus); assay: Test G Pre-Emergence Protocol; conditions: Amaranthus retroflexus, pre-emergence, 312 h, evaluated after 13 days; for pest or weed control at 15.625 g/ha: 15.625 g ai/ha; for pest or weed control at 15.625 g/ha / pest or weed control at 250 g/ha: read-out: Pigweed, Redroot damage rating (100=total damage to plant; 0=no damage to plant); for pest or weed control at 62.5 g/ha: 62.5 g ai/ha, 100=total damage to plant, 0=no damage to plant, read-out: plant damage rating, Pigweed, Redroot; for pest or weed control at 250 g/ha: 250 g ai/ha
In short: as §2

[10] = system: giant foxtail (Setaria faberi); assay: Test G Pre-Emergence Protocol; conditions: Setaria faberi, pre-emergence, 312 h, evaluated after 13 days; for pest or weed control at 15.625 g/ha: 15.625 g ai/ha; for pest or weed control at 15.625 g/ha / pest or weed control at 250 g/ha: read-out: Foxtail, Giant damage rating (100=total damage to plant; 0=no damage to plant); for pest or weed control at 62.5 g/ha: 62.5 g ai/ha, 100=total damage to plant, 0=no damage to plant, read-out: plant damage rating, Foxtail, Giant; for pest or weed control at 250 g/ha: 250 g ai/ha
In short: as §2

corn (Zea mays) [11] = assay: Test G Pre-Emergence Protocol; conditions: Zea mays, pre-emergence, 312 h, evaluated after 13 days; for plant injury at 15.625 g/ha: 15.625 g ai/ha; for plant injury at 15.625 g/ha / plant injury at 250 g/ha: read-out: Corn damage rating (100=total damage to plant; 0=no damage to plant); for plant injury at 62.5 g/ha: 62.5 g ai/ha, 100=total damage to plant, 0=no damage to plant, read-out: plant damage rating, Corn; for plant injury at 250 g/ha: 250 g ai/ha
In short: as §2

[12] = system: barnyardgrass (Echinochloa crus-galli); assay: Test G Pre-Emergence Protocol; conditions: Echinochloa crus-galli, pre-emergence, 312 h, evaluated after 13 days; for pest or weed control at 15.625 g/ha: 15.625 g ai/ha, read-out: Barnyard grass damage rating (100=total damage to plant; 0=no damage to plant); for pest or weed control at 62.5 g/ha: 62.5 g ai/ha, 100=total damage to plant, 0=no damage to plant, read-out: plant damage rating, Barnyardgrass; for pest or weed control at 250 g/ha: 250 g ai/ha, read-out: Barnyardgrass damage rating (100=total damage to plant; 0=no damage to plant)
In short: as §2

| Structure (SMILES) | pest or weed control at 15.625 g/ha [1] [%] | pest or weed control at 62.5 g/ha [1] [%] | pest or weed control at 250 g/ha [1] [%] | pest or weed control at 15.625 g/ha [2] [%] | pest or weed control at 62.5 g/ha [2] [%] | pest or weed control at 250 g/ha [2] [%] | pest or weed control at 15.625 g/ha [3] [%] | pest or weed control at 62.5 g/ha [3] [%] | pest or weed control at 250 g/ha [3] [%] | pest or weed control at 15.625 g/ha [4] [%] | pest or weed control at 62.5 g/ha [4] [%] | pest or weed control at 250 g/ha [4] [%] | plant injury at 15.625 g/ha (corn (Zea mays) [5]) [%] | plant injury at 62.5 g/ha (corn (Zea mays) [5]) [%] | plant injury at 250 g/ha (corn (Zea mays) [5]) [%] | pest or weed control at 15.625 g/ha [6] [%] | pest or weed control at 62.5 g/ha [6] [%] | pest or weed control at 250 g/ha [6] [%] | pest or weed control at 15.625 g/ha [7] [%] | pest or weed control at 62.5 g/ha [7] [%] | further results |
| --- | --- | --- | --- | --- | --- | --- | --- | --- | --- | --- | --- | --- | --- | --- | --- | --- | --- | --- | --- | --- | --- |
| CN1C[C@@H](c2ccc(C(F)(F)F)cc2)[C@H](C(=O)Nc2ccc(F)nc2)C1=O (racemic) [Compound 1555] | 0 | 0 | 10 | 0 | 10 | 50 | 0 | 0 | 20 | 0 | 0 | 50 | 0 | 10 | 0 | 0 | 0 | 40 | 0 | 0 | pest or weed control at 250 g/ha [7]: 0%; pest or weed control at 62.5 g/ha [8]: 0%; pest or weed control at 250 g/ha [8]: 0%; pest or weed control at 15.625 g/ha [9]: 40%; pest or weed control at 62.5 g/ha [9]: 30%; pest or weed control at 250 g/ha [9]: 70%; pest or weed control at 15.625 g/ha [10]: 0%; pest or weed control at 62.5 g/ha [10]: 30%; pest or weed control at 250 g/ha [10]: 70%; plant injury at 15.625 g/ha (corn (Zea mays) [11]): 0%; plant injury at 62.5 g/ha (corn (Zea mays) [11]): 0%; plant injury at 250 g/ha (corn (Zea mays) [11]): 20%; pest or weed control at 15.625 g/ha [12]: 0%; pest or weed control at 62.5 g/ha [12]: 20%; pest or weed control at 250 g/ha [12]: 70% |
| CCc1nnc(NC(=O)[C@@H]2C(=O)N(C)C[C@H]2c2ccc(C(F)(F)F)cc2)s1 (racemic) [Compound 1558] | 0 | 0 | 0 | 0 | 0 | 0 | 0 | 0 | 0 | 0 | 0 | 0 | 0 | 0 | 0 | 0 | 10 | 20 | 0 | 0 | pest or weed control at 250 g/ha [7]: 0%; pest or weed control at 15.625 g/ha [8]: 0%; pest or weed control at 62.5 g/ha [8]: 0%; pest or weed control at 250 g/ha [8]: 0%; pest or weed control at 15.625 g/ha [9]: 0%; pest or weed control at 62.5 g/ha [9]: 0%; pest or weed control at 250 g/ha [9]: 10%; pest or weed control at 15.625 g/ha [10]: 0%; pest or weed control at 62.5 g/ha [10]: 0%; pest or weed control at 250 g/ha [10]: 0%; plant injury at 15.625 g/ha (corn (Zea mays) [11]): 0%; plant injury at 62.5 g/ha (corn (Zea mays) [11]): 0%; plant injury at 250 g/ha (corn (Zea mays) [11]): 0%; pest or weed control at 15.625 g/ha [12]: 0%; pest or weed control at 62.5 g/ha [12]: 0%; pest or weed control at 250 g/ha [12]: 10% |
| CN1C[C@@H](c2ccc(C(F)(F)F)cc2)[C@H](C(=O)Nc2cccc(C(F)(F)F)n2)C1=O (racemic) [Compound 1563] | 0 | 0 | 0 | 0 | 0 | 0 | 0 | 0 | 0 | 0 | 0 | 0 | 0 | 0 | 0 | 0 | 0 | 0 | 0 | 0 | pest or weed control at 250 g/ha [7]: 0%; pest or weed control at 15.625 g/ha [8]: 0%; pest or weed control at 62.5 g/ha [8]: 0%; pest or weed control at 250 g/ha [8]: 0%; pest or weed control at 15.625 g/ha [9]: 0%; pest or weed control at 62.5 g/ha [9]: 0%; pest or weed control at 250 g/ha [9]: 0%; pest or weed control at 15.625 g/ha [10]: 0%; pest or weed control at 62.5 g/ha [10]: 0%; pest or weed control at 250 g/ha [10]: 0%; plant injury at 15.625 g/ha (corn (Zea mays) [11]): 0%; plant injury at 62.5 g/ha (corn (Zea mays) [11]): 0%; plant injury at 250 g/ha (corn (Zea mays) [11]): 0%; pest or weed control at 15.625 g/ha [12]: 0%; pest or weed control at 62.5 g/ha [12]: 0%; pest or weed control at 250 g/ha [12]: 0% |
